Measured values reported in patent publication US8853215B2, “Derivatives of N-acyl-N′-phenylpiperazine useful (inter alia) for the prophylaxis or treatment of diabetes” (Takeda Pharmaceutical Company Limited, priority 2009, dated 2014).

Tests used:
human RBP4 = human RBP4 (Homo sapiens (Human), UniProt P02753); assay: Binding assay by Retinol-RBP4-TTR ELISA; settings: for inhibition at 10 µM: at 10 μM compound, read-out: human RBP4 binding inhibitory activity(% at 10 μM); for IC50: retinol 50 nM, His-tagged human RBP4, biotinylated human TTR, read-out: human RBP4 binding inhibitory activity (IC50 nM)
Experimental: The action of the compound of the present invention to inhibit binding of RBP4 and retinol and TTR was evaluated using the Retinol-RBP4-TTR ELISA system shown below.
1F: Binding Assay by Retinol-RBP4-TTR ELISA
This ELISA system detects a complex of RBP4 and TTR based on a retinol-dependent binding of RBP4 to TTR.
His-tagged human RBP4 used was prepared in the above-mentioned 1C.
Biotinylate human TTR used was prepared in the above-mentioned 1E.
Streptavidin (20 μl) (10 μg/ml Streptavidin type II (Wako Pure Chemical Industries, Ltd.), 10 mM Tris-HCl (pH 7.5), 10 mM NaCl) was added to a 384 well black plate (Nunc MaxiSorp, Thermo Fisher Scientific Inc.), and the plate was subjected to centrifugation (1000 rpm, 1 min) and coated overnight at 4° C. The plate was washed twice with PBST (PBS, 0.05% Tween 20, 100 μl/well) and blocked with 25% Block Ace (Snow Brand Milk Products Co., Ltd., PBS, 100 μl/well). The plate was subjected to centrifugation (1000 rpm, 1 min) and incubated at room temperature for 4 hr or overnight at 4° C. The plate was washed twice with PBST (PBS, 0.05% Tween 20, 100 μl/well), and biotinylate human TTR (stock solution concentration 1.0 mg/ml) diluted 750-fold with PBST was added at 20 μl/well. The plate was subjected to centrifugation (1000 rpm, 1 min) and stood still at room temperature for 1.5 hr or overnight at 4° C. The plate was washed 3 times with PBST (100 μl/well), and His-tagged human RBP4 (stock solution concentration 0.96 mg/ml) diluted 4000-fold with a reaction buffer (50 mM Tris-HCl, 150 mM NaCl, 0.005% Tween 20, 1 mM DTT, 0.1% BSA) was added at 10 μl/well. The dilution series (8 doses from 10 mM, 200-fold concentration) of the compound was prepared with DMSO, and 1 μl of each was added to a reaction buffer (200 μl) containing retinol (50 nM) (Sigma-Aldrich Co.). A reaction buffer (200 μl) containing retinol and added with DMSO was used as a positive control, and reaction buffer (200 μl) free of retinol and added with DMSO was used as a negative control. Mixed solutions of retinol and the compound were added to the plate at 15 μl/well. The plate was stirred in a platemixer subjected to centrifugation (1000 rpm, 1 min) and reacted at room temperature for 2 hr. A 35% Block Ace solution diluted with the reaction buffer was added at 10 μl/well, centrifuged (1000 rpm, 1 min) and reacted at room temperature for 30 min. The plate was washed 3 times with PBST (100 μl/well) and SuperSignal ELISA Femto Maximum Sensitivity Substrate reagent (PIERCE, Thermo Fisher Scientific Inc.) was added at 30 μl/well, and the luminescence was measured by a platereader (Wallac).
The binding inhibitory activity of the compound was determined by 100×(positive control value-test compound value)/(positive control value-negative control value). The binding activity (IC50) was calculated from the binding inhibitory rate at each compound concentration using a graph drawing software, GraphPad Prism (GraphPad Software Inc.).

RBP4 = RBP4 (Mus musculus (Mouse), UniProt Q00724); assay: Single administration test in mice, plasma RBP4 by ELISA; format: in vivo; settings: male C57BL/6J or ICR mice, 50 mg/kg oral single dose, mean±SD; for RBP4 (% of initial/Control) 0 hr: 0 hr (just before the administration); for RBP4 (% of initial/Control) 4 hr: 4 hr after administration; for RBP4 (% of initial/Control) 7 hr: 7 hr after administration; for RBP4 (% of initial/Control) 24 hr: 24 hr after administration
Experimental: The action of the compounds of the present invention to reduce plasma RBP4 level was evaluated using the animal model shown below.
Male C57BL/6J and ICR mice were purchased from Charles River (Japan) and maintained on a normal diet (CE2, CLAE Japan, Inc.) and tap water. Animals were housed in a temperature-controlled room adjusted to a 12-hour light/12-hour dark cycle beginning at 7:00 and 19:00, respectively. All procedures were conducted according to the experimental animal care use committee of Takeda Pharmaceutical Company.
Male 6-12-week-old C57BL/6J or ICR mice were housed individually and fed CE2 for 4-6 days. After acclimatization, mice were divided into groups based on their body weight. Compounds were suspended in 0.5% (w/v) methylcellulose in water and given orally to mice at a dose of 50 mg/10 mL/kg of body weight (three to five mice per group). Blood samples were obtained from orbital vein with sodium heparin as an anticoagulant at time 0 hr (just before the administration), 4 hr, 7 hr, and 24 hr after the administration, followed by plasma separation by centrifugation. Plasma RBP4 levels were measured by enzyme-linked immunosorbent assay described in the following section.
Plasma samples were analyzed in duplicate for RBP4 by an enzyme-linked immunosorbent assay. Mouse recombinant RBP4 (Takeda Pharmaceutical Company) was used as standards, and the assay range was 0.313-20 ng/ml. Samples were diluted 10,000-fold with phosphate-buffered saline (PBS) (Sigma) containing 10% (w/v) BlockAce (Dainippon Sumitomo Pharma Co., Ltd). Rabbit anti-RBP4 polyclonal antibody (100 μL/well of 50 μg/mL, Hokudo Co, Ltd) was incubated in a 96-well plate (Nalge Nunc International K.K.) for overnight at 4° C. Subsequently, the plates were washed with PBS-T (Wako Pure Chemical Industries, Ltd.) and blocked with PBS containing 25% BlockAce for 1 hr at room temperature. After another washing with PBS-T, samples and standards were applied to the well, and the plates were incubated for 2 hr at room temperature. After a washing the wells, peroxidase-labeled (Dojindo Laboratories) anti-RBP4 (100 μL/well) was added to the wells, and then the plates were incubated for 1 hr at room temperature. After a final washing with PBS-T, substrate solution 3,3,5,5-tetramethylbenzidine (Sigma) was added to the wells, and the plates were placed in the dark for 5-20 min at room temperature. The reaction was stopped with 0.5 M sulphuric acid and the optical density was measured with a spectrophotometer at 450 nm. The changes in plasma RBP4 levels were expressed as % of initial/Control. All data are presented as mean±SD.

Row | SMILES | inhibition at 10 µM (human RBP4) | RBP4 (% of initial/Control) 0 hr (RBP4) | RBP4 (% of initial/Control) 4 hr (RBP4) | RBP4 (% of initial/Control) 7 hr (RBP4) | RBP4 (% of initial/Control) 24 hr (RBP4) | IC50 (human RBP4)
1 | CC(C)(C)c1ccccc1N1CCN(C(=O)C(=O)NS(=O)(=O)NCC2CC2)CC1 [Example 39, 2-[4-(2-tert-Butylphenyl)piperazin-1-yl]-N-[(cyclopropylmethyl)sulfamoyl]-2-oxoacetamide] | 97% | 100.0 ± 5.8 % of initial/Control | 37.1 ± 1.9 % of initial/Control | 45.1 ± 6.2 % of initial/Control | 86.6 ± 12.4 % of initial/Control | 430 nM
2 | CC(C)(C)c1cc(Br)ccc1N1CCN(C(=O)C(=O)O)CC1 [Example 67, [4-(4-Bromo-2-tert-butylphenyl)piperazin-1-yl](oxo)acetic acid] | 100% | 100.0 ± 26.6 % of initial/Control | 44.8 ± 2.9 % of initial/Control | 40.3 ± 1.6 % of initial/Control | 94.9 ± 22.6 % of initial/Control | –
3 | CC(C)(C)c1cc(Br)ccc1N1CCN(C(=O)CC(=O)O)CC1 [Example 69, 3-[4-(4-Bromo-2-tert-butylphenyl)piperazin-1-yl]-3-oxopropanoic acid] | 99% | 100.0 ± 13.8 % of initial/Control | 47.7 ± 2.7 % of initial/Control | 44.4 ± 0.7 % of initial/Control | 50.0 ± 2.4 % of initial/Control | 30 nM
4 | Cc1ccc(N2CCN(C(=O)C(=O)O)CC2)c(C(C)(C)C)c1 [Example 82, [4-(2-tert-Butyl-4-methylphenyl)piperazin-1-yl](oxo)acetic acid] | 99% | 100.0 ± 12.5 % of initial/Control | 54.6 ± 4.1 % of initial/Control | 74.2 ± 15.5 % of initial/Control | 101.5 ± 9.7 % of initial/Control | –
5 | CC(C)(C)c1ccccc1N1CCN(C(=O)C(=O)N2CCC(C(=O)O)CC2)CC1 [Example 89, 1-{[4-(2-tert-Butylphenyl)piperazin-1-yl](oxo)acetyl}piperidine-4-carboxylic acid] | 99% | 100.0 ± 34.2 % of initial/Control | 42.5 ± 6.0 % of initial/Control | 46.6 ± 4.3 % of initial/Control | 105.9 ± 27.6 % of initial/Control | –
6 | CC(C)(C)c1ccccc1N1CCN(C(=O)Cn2cnnn2)CC1 [Example 94, 1-(2-tert-Butylphenyl)-4-(1H-tetrazol-1-ylacetyl)piperazine] | 100% | 100.0 ± 21.7 % of initial/Control | 45.7 ± 0.8 % of initial/Control | 58.9 ± 5.1 % of initial/Control | 89.2 ± 11.6 % of initial/Control | –

Further lines, results first:

Row | inhibition at 10 µM (human RBP4) | RBP4 (% of initial/Control) 0 hr (RBP4) | RBP4 (% of initial/Control) 4 hr (RBP4) | RBP4 (% of initial/Control) 7 hr (RBP4) | RBP4 (% of initial/Control) 24 hr (RBP4) | IC50 (human RBP4) | SMILES
7 | 100% | 100.0 ± 36.4 % of initial/Control | 30.9 ± 2.7 % of initial/Control | 32.2 ± 2.2 % of initial/Control | 73.1 ± 25.6 % of initial/Control | – | CC(C)(C)c1ccccc1N1CCN(C(=O)c2ccc(OCC(=O)O)cc2)CC1 [Example 24, (4-{[4-(2-tert-Butylphenyl)piperazin-1-yl]carbonyl}phenoxy)acetic acid]
8 | 100% | 100.0 ± 7.3 % of initial/Control | 45.0 ± 1.9 % of initial/Control | 57.6 ± 5.6 % of initial/Control | 75.8 ± 6.0 % of initial/Control | – | CC(C)(C)c1ccccc1N1CCN(C(=O)c2ccc(SCC(=O)O)nc2)CC1 [Example 25, [(5-{[4-(2-tert-Butylphenyl)piperazin-1-yl]carbonyl}pyridin-2-yl)sulfanyl]acetic acid]
9 | 100% | 100.0 ± 29.7 % of initial/Control | 39.9 ± 3.4 % of initial/Control | 30.2 ± 1.3 % of initial/Control | 93.6 ± 15.1 % of initial/Control | – | CC(C)(C)c1ccccc1N1CCN(C(=O)CCC(=O)O)CC1 [Example 53, 4-(4-(2-tert-Butylphenyl)piperazin-1-yl)-4-oxobutanoic acid]
10 | 100% | 100.0 ± 17.1 % of initial/Control | 51.2 ± 1.0 % of initial/Control | 56.7 ± 2.4 % of initial/Control | 120.9 ± 9.0 % of initial/Control | 150 nM | CC(C)(C)c1ccccc1N1CCN(C(=O)C2(C(=O)O)CC2)CC1 [Example 71, 1-{[4-(2-tert-Butylphenyl)piperazin-1-yl]carbonyl}cyclopropanecarboxylic acid]
11 | 100% | 100.0 ± 13.6 % of initial/Control | 36.6 ± 1.0 % of initial/Control | 38.1 ± 1.3 % of initial/Control | 80.3 ± 18.4 % of initial/Control | – | CC(C)(C)c1ccccc1N1CCN(C(=O)C(=O)NCC(=O)O)CC1 [Example 87, N-{[4-(2-tert-Butylphenyl)piperazin-1-yl](oxo)acetyl}glycine]
12 | 100% | 100.0 ± 12.8 % of initial/Control | 70.1 ± 1.8 % of initial/Control | 67.0 ± 2.6 % of initial/Control | 123.3 ± 14.2 % of initial/Control | – | CC(C)(C)c1ccccc1N1CCN(C(=O)c2ncoc2CCC(=O)O)CC1 [Example 178, 3-(4-{[4-(2-tert-Butylphenyl)piperazin-1-yl]carbonyl}-1,3-oxazol-5-yl)propanoic acid]
